Laboratory results from patent publication US5629340A, “Angiogenesis inhibitor and novel compound” (Tsumura & Co., priority 1993, dated 1997).
Read-outs that look alike come from different tables or passages of the source.

Legend:
[1] = test system: M-5076 (mouse ovarian reticulo sarcoma); experiment: In-vivo anti-tumor activity, M-5076 transplanted in C57BL6 mouse; conditions: for Relative tumor proliferation rate (Trv/Crv(%)): day 21, control 100.0; for anti-tumor activity in vivo: in words
Procedure: In-vivo anti-tumor activity of the compounds of the present invention was tested.
M-5076 (mouse ovarian reticulo sarcoma, mouse ovary cancer) was intraperitoneally (i.p.) inoculated in C57BL6 mouse, and maintained by ip passage. The obtained ascites tumor cells werediluted with PBS (-) to cellular number of 2×10^7 cells/ml. 50 μl of the dilute solution (cellular number: 1×10^6) was subcutaneously (s.c.) transplanted to the right dorsal part of C57BL6 mouse (6 week old, female). From 7 days after the tumor cell inocutation, a sample was administrated to the mouse. The sample was prepared by suspending compounds (1) and (8) in 2% Tween 80 PBS (-) solution. The suspension was subcutaneously injected to a mouse in a dose of 100 μl per mouse. Three dosages, i.e., 400 mg/kg, 200 mg/kg and 100 mg/kg were set for the injection.
Mitomycin C (MMC) and Fumagillin Were employed in positive controls. MMC was intravascularly injected 4 times every two day. Other test samples and Fumagillin were intravascularly injected 6 times in total in a rate of 3 times/week. The test was carried out using N=9 in controls and N=5 in other groups.
Twenty one days after the inocutation of the tumor cells (14 days after the next day of the initiation of the sample injection), a relative tumor proliferation rate were examined to determine the anti-tumor effect of the samples.
The relative tumor proliferation rate are indicated by the following equation.
A significant difference test was performed by the Mann-Whitney U-Test. [formula]

[2] = test system: HOME cells (human omental capillary endothelial cells); experiment: Migration of wounded HOME cells (wound healing model), with or without TGFα; assay type: cell-based; design: activity: dose or concentration left out as unconfirmed; conditions: Endothelial cell; for activity: 24 h, compound added, read-out: Cell-migration rate (% of non-treatment group); for inhibition at 10 µg/mL: TGFα-free medium, final concentration 10 μg/ml, approximately
Excerpt: (§1) An in-vitro angiogenesis models have been established, using human omental capillary endothelial cells (hereinafter referred to as "HOME cells"). One is the angiogenesis models in a process of wound healing formed when the HOME cells are damaged with a razor blade. Another one is a model of HOME cell migration, synthesis of a tissue plasminogen activation factor (t-PA), and HOME-cell tube formation, accelerated by TGFα.
Compound(s) as an active ingredient of the angiogenesis inhibitor of the present invention (hereinafter also simply refer:red to as "compound(s)") were evaluated with respect to an activity to cell migration with human HOME cells in which a wound healing had been made by a razor blade, and cell migration activity accelerated by TGFα.
The HOME cells to be used in this experiment were isolated from human omental fatty tissues and cultured in a M-199 medium containing 10% fetal bovine serum (FBS) over 3 to 5 generations.
TGFα was obtained from Collaborative Research Inc., Bedford, Ma.
The HOME cells were cultured as a monolayer on a collagen-coated plastic dish (35 mm .phi.) to confluent. The thus obtained HOME cells were wounded with a razor blade and then washed twice with a phosphate buffer saline solution (PBS). […] Further, HOME cells were cultured in 1% human serum containing M-199 medium with neither active ingredient nor TGFα at 37° C for 24 hours to prepare a non-treatment group.
On the dish on which the HOME cells were cultured, the numbers of migrated HOME cells were counted, which migrated to the exposed portion of the Collagen-coated plastic dish. A cell-migration rate was calculated, regarding the cell migration numbers of the non-treatment group as 100%.

[3] = test system: HOME cells (human omental capillary endothelial cells); experiment: Tube formation of HOME cells induced by TGFα on type-1 collagen gel; assay type: cell-based; conditions: for Tube formation remaining (%) at 10 µg/mL: Homo sapiens, Endothelial cell, final concentration 10 μg/ml, read-out: inhibition of tube formation induced by TGFα ("inhibited to"); for Total length of lumen/HPF: Table 7, non-treatment 0.551, control 1.561; for Total length of lumen/HPF / Total tube length/HPF: compound 10 μg/ml, TGFα 10 ng/ml, 3 days; for Total tube length/HPF: Table 6, non-treatment 0.616, control 2.045
Excerpt: as §1
The activity of the active ingredients to the tube formation of the HOME cells induced by TGFα was determined.
At first, 8 volume of a type 1 collagen solution (manufactured by Nitta Gelatin .), 1 volume of 10×M-199 and 1 volume of a reconstituted buffer) [200 mM Hepes, 0.05N sodium hydroxide and 260 mM sodium hydrogen carbonate] were mixed under ice cooling. The mixture was placed on plastic dishes (30 mm diameter, manufactured by Corning.) and allowed to stand still at 37° C. to make gel, thereby preparing a type-1 collagen gel.
Subsequently, the HOME cells were suspended in 10% FBS containing M-199 medium and then dispersed on the type 1 collagen gel mentioned above and incubated at 37° C.
When the HOME cells were incubated to confluent , they were transferred to 1% human serum containing M-199 mediums to which compounds (1), (2) and (4) to (12) (a final concentration: 10 μg/ml) were individually added together with TGFα (final concentration 10 ng/ml). These mediums were incubated for 3 days.
The HOME cells were also transferred to a 1% human serum containing M-199 medium with TGFα alone to prepare a control group and transferred to a 1% human serum containing M-199 medium to prepare a non-treatment group. They were also incubated for 3 days.
Two days after the incubation started, the culture mediums were exchanged. At three days, photographic picture of each dish was taken by a video camera (R5000H, Fuji, Tokyo), using a phase-contrast microscope at 200 magnification of the object. 8 views were taken for each dishes. The total tube length per one view formed by the HOME cells was measured by using a Cosmozone IS image analyzer (manufactured by Nikon).

[4] = test system: HOME cells co-cultured with human esophagus cancer cells (TE-1); experiment: Tube formation of HOME cells induced by human cancer cells (co-culture with TE-1 cells); assay type: cell-based; conditions: Table 8; compound 10 μg/ml; TE-1 co-culture; non-treatment 0.348, control 1.551
Procedure: In a co-culture of the HOME cells and human cancer cells, the activity of the compounds to the tube formation of the HOME cells induced by the human cancer cells was determined. This experiment was carried out in accordance with the co-culture method described in Morisaki, Saito, et al., "Co-culture test system of vascular endothelial cells and tunica media smooth muscle cells".
The HOME cells on the type-1 collagen gel prepared in Experiment 2 and human esophagus cancer cells (TE-1) were co-cultured to assemble a tube formation assay system. More specifically, using a plate (manufactured by Corning Co.,) having 6 holes (each hole size: 38×7 mm) in the outer vessel, 2 ml of 10% FBS containing M-199 medium was placed to each hole. The TE-1 cells were cultured in this medium. Thereafter, the medium was replaced with 2 ml of 1% FBS containing M-199 mediums which respectively contained compounds (1) and (8). Also, the medium was replaced with 1% FBS containing M-199 medium alone.
On the other hand, culture plates equipped with a Millipore filter at the inner vessel (size: 30×7 mm) bottom, were prepared. The type-1 collagen gel was placed in the inner vessel. On each of the type-1 collagen gel, 2 ml of the HOME cells suspension in the 10% FBS containing M-199 medium were planted. […]
The total tube length in the HOME cells cultured was measured in the same manner as in Experiment 2.

[5] = 100 mg/kg, 6 injections, 3 times/week
[6] = 200 mg/kg, 6 injections, 3 times/week
[7] = 400 mg/kg, 6 injections, 3 times/week

Question: What does the source list for `COc1cc(-c2oc(-c3ccc(O)c(OC)c3)c(C)c2C)ccc1O` [Compound 1]?
Answer: Relative tumor proliferation rate (Trv/Crv(%)) [1, 5]: 37.1%; Relative tumor proliferation rate (Trv/Crv(%)) [1, 6]: 37.4%; Relative tumor proliferation rate (Trv/Crv(%)) [1, 7]: 51.3%; anti-tumor activity in vivo [1]: significant anti-tumor activity in vivo; activity ([2]; TGFα Free): 13.9%; activity ([2]; TGFα added): 24%; inhibition at 10 µg/mL [2]: 50 to 86%; Tube formation remaining (%) at 10 µg/mL [3]: 50 to 80%; Total length of lumen/HPF [3]: 0.337 10^3 μm; Total length of lumen/HPF [4]: 0.250 10^3 μm

Question: What does the source list for `COc1ccc(-c2oc(-c3ccc(OC)c(OC)c3)c(C)c2C)cc1OC` [Compound 2]?
Answer: activity ([2]; TGFα Free): 69%; activity ([2]; TGFα added): 68.2%; Tube formation remaining (%) at 10 µg/mL [3]: 40 to 60%; Total tube length/HPF [3]: 1.115 10^3 μm

Question: With `Cc1c(-c2ccc(O)c(O)c2)oc(-c2ccc(O)c(O)c2)c1C` [Compound 3, 3,4-dimethyl-2,5-bis(3,4-dihydroxyphenyl)furan] as the compound, how does the activity ([2]; TGFα Free) read?
Answer: 52.7%

Question: What about the activity ([2]; TGFα added) of the same compound?
Answer: 73.1%

Question: What does the source list for `COc1cc(-c2oc(-c3ccc(OC(C)=O)c(OC)c3)c(C)c2C)ccc1OC(C)=O` [Compound 4]?
Answer: activity ([2]; TGFα Free): 50.2%; activity ([2]; TGFα added): 60.4%; Total tube length/HPF [3]: 2.127 10^3 μm

Question: What does the source list for `Cc1c(-c2ccc3c(c2)OCO3)oc(-c2ccc3c(c2)OCO3)c1C` [Compound 6, 3,4-dimethyl-2,5-bis(3,4-methylenedioxyphenyl)-furan]?
Answer: activity ([2]; TGFα Free): 45.2%; activity ([2]; TGFα added): 59.9%; inhibition at 10 µg/mL [2]: 50 to 86%; Tube formation remaining (%) at 10 µg/mL [3]: 40 to 60%; Total tube length/HPF [3]: 1.240 10^3 μm

Question: For `Cc1c(-c2ccc3c(c2)OCCO3)oc(-c2ccc3c(c2)OCCO3)c1C` [Compound 7, 3,4-dimethyl-2,5-bis(3,4-ethylenedioxyphenyl)furan], which activity ([2]; TGFα Free) is on record?
Answer: 33.3%

Question: What about the activity ([2]; TGFα added) of the same compound?
Answer: 31.4%

Question: What about the Tube formation remaining (%) at 10 µg/mL [3] of the same compound?
Answer: 40 to 60%

Question: What about the “Total tube length/HPF” value [3] of the same compound?
Answer: 1.195 10^3 μm

Question: Which “Relative tumor proliferation rate (Trv/Crv(%))” value [1, 5] does the source give for `COc1ccc(-c2oc(-c3ccc(OC)c(O)c3)c(C)c2C)cc1O` [Compound 8, 2,5-bis(3'-hydroxyl-4'-methoxyphenl)-3,4-dimethylfuran] here?
Answer: 59.4%

Question: What about the “Relative tumor proliferation rate (Trv/Crv(%))” value [1, 6] of the same compound?
Answer: 41.4%

Question: And the “Relative tumor proliferation rate (Trv/Crv(%))” value [1, 7]?
Answer: 37.4%

Question: What about the “anti-tumor activity in vivo” value [1] of the same compound?
Answer: significant anti-tumor activity in vivo

Question: And the activity ([2]; TGFα Free)?
Answer: 69.4%

Question: What about the activity ([2]; TGFα added) of the same compound?
Answer: 44.2%

Question: And the inhibition at 10 µg/mL [2]?
Answer: 50 to 86%

Question: And the Tube formation remaining (%) at 10 µg/mL [3]?
Answer: 50 to 80%

Question: And the “Total length of lumen/HPF” value [3]?
Answer: 0.422 10^3 μm

Question: And the “Total length of lumen/HPF” value [4]?
Answer: 0.277 10^3 μm

Question: Which activity ([2]; TGFα Free) does the source give for `COc1cc(-c2oc(C)c(-c3ccc(O)c(OC)c3)c2C)ccc1O` [Compound 9, 2,4-bis(4-hydroxy-3-methoxyphenyl)-3,5-dimethylfuran] here?
Answer: 63.3%

Question: And the activity ([2]; TGFα added)?
Answer: 73%

Question: What about the Tube formation remaining (%) at 10 µg/mL [3] of the same compound?
Answer: 50 to 80%

Question: And the “Total length of lumen/HPF” value [3]?
Answer: 0.496 10^3 μm

Question: How did the Tube formation remaining (%) at 10 µg/mL [3] turn out when `COc1cc(-c2oc(-c3ccc(O)c(OC)c3)c(CC(C)C)c2CC(C)C)ccc1O` [Compound 10, 2,5-bis(4'-hydroxy-3'-methoxyphenyl)-3,4-diisobutylfuran] was run?
Answer: 50 to 80%

Question: And the “Total length of lumen/HPF” value [3]?
Answer: 0.655 10^3 μm

Question: `COc1cc(-c2oc(-c3cc(OC)c(O)c(OC)c3)c(C)c2C)cc(OC)c1O` [Compound 11, 2,5-bis(4'-hydroxy-3',5'-dimethoxyphenyl)-3,4-dimethylfuran] was tested. Which activity ([2]; TGFα Free) did it give?
Answer: 81.2%

Question: What about the activity ([2]; TGFα added) of the same compound?
Answer: 56.1%

Question: And the Tube formation remaining (%) at 10 µg/mL [3]?
Answer: 50 to 80%

Question: And the “Total length of lumen/HPF” value [3]?
Answer: 0.817 10^3 μm

Question: What does the source list for `CCOC(=O)c1c(-c2ccc(O)c(OC)c2)oc(-c2ccc(O)c(OC)c2)c1C(=O)OCC` [Compound 12, Diethyl 2,5-bis(4'-hydroxy-3'-methoxyphenyl)furan-3,4-dicarboxylate]?
Answer: activity ([2]; TGFα Free): 72.7%; activity ([2]; TGFα added): 58.4%; Tube formation remaining (%) at 10 µg/mL [3]: 50 to 80%; Total length of lumen/HPF [3]: 0.736 10^3 μm

Question: Which “Relative tumor proliferation rate (Trv/Crv(%))” value ([1]; 30 mg/kg, 6 injections, 3 times/week) does the source give for `CO[C@@H]1[C@H](OC(=O)/C=C/C=C/C=C/C=C/C(=O)O)CC[C@]2(CO2)[C@H]1[C@@]1(C)O[C@@H]1CC=C(C)C` [Fumagillin, reference compound] here?
Answer: 41.7%

Question: For `CO[C@@]12[C@H](COC(N)=O)C3=C(C(=O)C(C)=C(N)C3=O)N1C[C@@H]1N[C@@H]12` [MMC, Mitomycin C, reference compound], which “Relative tumor proliferation rate (Trv/Crv(%))” value ([1]; 3.2 mg/kg, intravascular, 4 times every two days) is on record?
Answer: 7.9%
